What was measured:
[1] = system: geranium petiole explants; assay: Survival of geranium petiole explants on regeneration medium with detergents; type: cell-based, Pelargonium X hortorum; settings: for Survival of geranium petiole explants on regeneration medium: surviving/total explants
Description: Tween 20, a nonionic, fatty acid ester detergent, was evaluated as a potential selective agent for use in geranium (Pelargonium X hortorum) transformation experiments by placing geranium petiole explants into tissue culture with the addition to Tween 20 to the regeneration (shooting) medium normally used in geranium transformations (Robichon et al., 1995). Tween 20 was added at three concentrations: 1%, 0.1% and 0.01%. Each treatment consisted of 40 sterilized petiole explants placed in four tissue culture plates carrying 10 explants each. Survival of the explants was assayed weekly over four weeks on these media. Potential selective agent Span 20, also a nonionic, fatty acid ester detergent, was similarly evaluated, except that concentrations of 1%, 0.5% and 0.25% were evaluated over a twelve week period of time. The nonionic detergent Triton X-100, which is not a fatty acid ester detergent, was included for comparative purposes.

[2] = system: tomato leaf explants; assay: Survival of tomato leaf explants on regeneration medium with detergents; type: cell-based, Lycoperisicon esculentum; settings: 1% detergent; for Survival of tomato leaf explants on regeneration medium: surviving/total explants
Description: Tween 20 was similarly evaluated as a potential selective agent for use in tomato (Lycoperisicon esculentum) transformations by placing tomato leaf explants placed into tissue culture; Tween 20 was added to tomato regeneration (shooting) medium normally used in tomato transformations (Riggs et al., 2001) at a 1% concentration. Each treatment consisted of 40 sterilized leaf explants placed in four tissue culture plates carrying 10 explants each. Survival of the explants was assayed weekly over four weeks on these media.

[3] = system: tomato cultivar Micro-Tom leaf explants; assay: Agrobacterium transformation of tomato with selection on detergent or kanamycin; type: cell-based, Lycopersicon esculentum; settings: for No. of independent calli forming shoots / No. of rooted shoots / Transformation frequency (%): tomato Micro-Tom, pIPG768 bovine PGE; for Transformation frequency (%): confirmed by PCR
Description: Transgenic tomato (Lycopersicon esculentum) cultivar “Micro-Tom” plants were created using the Agrobacterium tumefaciens DNA delivery method [Riggs et al., 2001; Sun et al., 2006] using pIPG768. Selection was either on 1% Tween 20 added to both shoot and root regeneration media. As controls for comparative purposes, 100 micrograms/ml kanamycin was used.

[4] = system: tobacco cultivar Xanthi leaf explants; assay: Agrobacterium transformation of tobacco with selection on detergent or kanamycin; type: cell-based, Nicotiana tabacum; settings: for Transformation frequency (%): confirmed by PCR
Description: Transgenic tobacco (Nicotiana tabacum) cultivar “Xanthi” plants were created using the Agrobacterium tumefaciens DNA delivery method [Horsch et al., 1985] using pIPG833. Selection was on 1% or on 0.05% Tween 20 added to both shoot and root regeneration media. As a control for comparative purposes, pIPG786 was used (carrying the nptII gene for kanamycin resistance) for transformation and 100 micrograms/ml kanamycin was used for selection.
Transgenic tobacco (Nicotiana tabacum) cultivar “Xanthi” plants were created using the Agrobacterium tumefaciens DNA delivery method [Horsch et al., 1985] using pIPG833. Selection was on 1% or on 0.05% Span 20 added to both shoot and root regeneration media.
Transgenic tobacco (Nicotiana tabacum) cultivar “Xanthi” plants were created using the Agrobacterium tumefaciens DNA delivery method [Horsch et al., 1985] using pIPG875. Selection was on 1% Span 20 added to the shoot regeneration medium and 0.05% Span 20 added to the root regeneration medium.

[5] = system: rooting tomato plants; assay: Root growth of rooting tomato plants on 1% Tween 20 medium; type: in vivo
Description: The plant on the left, labeled “731”, was transformed using kanamycin selection and the kanamycin resistance gene driven by the 35S promoter on pIPG731 (ie., “empty” vector, without a lipase gene). The plant on the right, labeled “768”, was similarly transformed using kanamycin selection and the kanamycin resistance gene driven by the 35S promoter on pIPG768 (carrying a lipase gene). Both plants were rooted, kanamycin resistant transformants. Both plants, with roots removed to ca. 1-4 mm from the base, were transferred to rooting medium containing 1% Tween 20. After one week, the roots of both plants had grown to about the extent of the pIPG731 transformed plant, and the small ink marks were placed on the plates to indicate the extent of the root growth. Two weeks later, the roots on the plant transformed with pIPG731 had ceased to elongate and its roots started to appear brown at the growing tips, while the roots on the plant transformed with pIPG768 continued growing.
In order to test if the rooting medium inhibited or killed nontransgenic tomato that were rooting, regenerating nontransgenic tomato plants that were rooting, as well as transgenic tomato plants carrying pIPG678 that were rooting were placed on 1% Tween 20 medium.

[6] = system: tobacco cultivar Xanthi leaf explants; assay: Agrobacterium transformation of tobacco with selection on detergent or kanamycin; type: cell-based, Nicotiana tabacum; settings: pIPG833 bovine PGE, 0.5% Tween, 73 explants
[7] = 1% Tween in shoot and root media, Exp. 1, 253 explants
[8] = tobacco Xanthi, pIPG833 bovine PGE, 1% Tween, 73 explants

Question: Which “Survival of geranium petiole explants on regeneration medium” value (shortened to “Survival of geranium petiole explants”) ([1]; 0.01% detergent, Week 1) does the source give for Tween 20 here?
Answer: The value was 33/40.

Question: And the “Survival of geranium petiole explants” value ([1]; 0.01% detergent, Week 2)?
Answer: The value was 27/40.

Question: What about the “Survival of geranium petiole explants” value ([1]; 0.01% detergent, Week 3) of the same substance?
Answer: The value was 20/40.

Question: And the “Survival of geranium petiole explants” value ([1]; 0.01% detergent, Week 4)?
Answer: The value was 0/40.

Question: And the “Survival of geranium petiole explants” value ([1]; 0.1% detergent, Week 1)?
Answer: Its value is 31/40.

Question: What about the “Survival of geranium petiole explants” value ([1]; 0.1% detergent, Week 2) of the same substance?
Answer: Its value is 10/40.

Question: What about the “Survival of geranium petiole explants” value ([1]; 0.1% detergent, Week 3) of the same substance?
Answer: Its value is 0/40.

Question: What about the “Survival of geranium petiole explants” value ([1]; 0.1% detergent, Week 4) of the same substance?
Answer: Its value is 0/40.

Question: And the “Survival of geranium petiole explants” value ([1]; 1% detergent, Week 1)?
Answer: Its value is 10/40.

Question: What about the “Survival of geranium petiole explants” value ([1]; 1% detergent, Week 2) of the same substance?
Answer: The value was 0/40.

Question: What about the “Survival of geranium petiole explants” value ([1]; 1% detergent, Week 3) of the same substance?
Answer: Its value is 0/40.

Question: What about the “Survival of geranium petiole explants” value ([1]; 1% detergent, Week 4) of the same substance?
Answer: Its value is 0/40.

Question: And the “Killing of geranium explants in tissue culture (in words)” value ([1]; summary of Table 1)?
Answer: Its value is “completely killed all geranium explants in four weeks, even at the lowest level (0.01%) tested”.

Question: What about the “Survival of tomato leaf explants on regeneration medium” value (“Survival of tomato leaf explants” for short) ([2]; Week 1) of the same substance?
Answer: The value was 8/40.

Question: What about the “Survival of tomato leaf explants” value ([2]; Week 2) of the same substance?
Answer: Its value is 8/40.

Question: And the “Survival of tomato leaf explants” value ([2]; Week 3)?
Answer: Its value is 3/40.

Question: And the “Survival of tomato leaf explants” value ([2]; Week 4)?
Answer: Its value is 0/40.

Question: What about the “Killing of tomato explants in tissue culture (in words)” value ([2]; summary of Table 2) of the same substance?
Answer: The value was “completely killed all tomato explants in four weeks”.

Question: And the “Share of tomato leaf material provided with bovine PGE on pIPG768 producing green shoots” value ([3]; regeneration medium with 1% Tween 20)?
Answer: Its value is “nearly half”.

Question: And the “Fate of tomato leaf material provided with empty vector control plasmid” value ([3]; regeneration medium with 1% Tween 20, 30 days of selection)?
Answer: Its value is “either died or produced a small amount of brown callus that died”.

Question: What about the “No. of independent calli forming shoots” value [3, 7] of the same substance?
Answer: Its value is 25.

Question: And the “No. of rooted shoots” value [3, 7]?
Answer: The value was 25.

Question: And the “Transformation frequency (%)” value ([3]; 1% Tween, Exp. 1, 253 explants)?
Answer: The value was 7%.

Question: What about the “No. of independent calli forming shoots” value ([3]; 1% Tween, Exp. 2, 204 explants) of the same substance?
Answer: Its value is 15.

Question: And the “No. of rooted shoots” value ([3]; 1% Tween, Exp. 2, 204 explants)?
Answer: The value was 15.

Question: And the “Transformation frequency (%)” value ([3]; 1% Tween, Exp. 2, 204 explants)?
Answer: Its value is 4%.

Question: And the “No. of independent calli forming shoots” value ([3]; 1% Tween, Exp. 3, 275 explants)?
Answer: The value was 48.

Question: What about the “No. of rooted shoots” value ([3]; 1% Tween, Exp. 3, 275 explants) of the same substance?
Answer: Its value is 48.

Question: And the “Transformation frequency (%)” value ([3]; 1% Tween, Exp. 3, 275 explants)?
Answer: Its value is 4%.

Question: What about the “Tissue provided with pIPG833 producing shoots” value ([4]; regeneration medium with 0.05% detergent) of the same substance?
Answer: Its value is 100%.

Question: And the “Tobacco leaf material provided with bovine PGE on pIPG833 producing green shoots” value ([4]; regeneration medium with 1% detergent)?
Answer: Its value is 16%.

Question: What about the Transformation efficiency ([4]; tobacco Xanthi, pIPG833, detergent at the 0.05% level) of the same substance?
Answer: The Transformation efficiency was 6%.

Question: And the “No. of independent calli forming shoots” value ([4]; tobacco Xanthi, pIPG833 bovine PGE, 0.5% Tween, 73 explants)?
Answer: Its value is 73.

Question: What about the “No. of independent calli forming shoots” value ([4]; tobacco Xanthi, pIPG833 bovine PGE, 1% Tween in shoot and root media, 73 explants) of the same substance?
Answer: The value was 12.

Question: What about the “No. of rooted shoots” value [4, 8] of the same substance?
Answer: Its value is 12.

Question: And the “Transformation frequency (%)” value [4, 8]?
Answer: Its value is 5%.

Question: What about the “Transformation frequency (%)” value ([4]; tobacco Xanthi, pIPG833 bovine PGE, 1% Tween, 73 explants, listed as Tween) of the same substance?
Answer: The value was 5%.

Question: What about the “Growth of transgenic tomato plants expressing bovine PGE” value [5] of the same substance?
Answer: Its value is “did not affect growth”.

Question: And the “Root growth of nontransgenic rooting tomato plants” value [5]?
Answer: The value was “completely and almost immediately inhibited root growth”.

Question: And the “No. of rooted shoots” value [6]?
Answer: The value was 73.

Question: And the “Transformation frequency (%)” value ([6]; confirmed by PCR)?
Answer: The value was 6%.
